“And” between values parts separate entries of the source, which are not always exact repeats. Equal entries are not always repeated. “Also recorded” adds a separate entry of the source. Where a SMILES comes first, the peptide text is derived from it. Where no end group is shown, it is not given here. [ ]: non-standard residue; d: D form.

One data set concerns placenta. The data set is described as follows: HSJ633 biodistribution in placenta (fluorescence). The data set is classed as in vivo, mouse. The following applies: 1 mg/kg s.c., LPS 10 μg i.p., GD17, 4 h, pregnant mice; 11–12 samples per group.
For data set [1], the target named is T1, IL-6R (HEK-Blue IL-6 cells) (Homo sapiens, UniProt P08887).
T1 construct: host or cells: HEK-Blue IL-6 cells (HEK293-derived, H. sapiens)
The experiment in a line: IL-6-induced IL-1β, TNF-α and IL-6 mRNA in HEK-Blue IL-6 cells, dose-response (RT-qPCR). The data set is classed as cell-based. On the procedure:
For in vitro dose–response experiments, HEK-blue IL-6 cells were allowed to acclimate for two passages to complete the stabilization of the receptor before experiments. Prior to experiments, cells at 70% of confluence were added to six-well plates, then starved overnight before media was changed 30 min prior to beginning the stimulation. After the 30 min pre-incubation, the cells were treated with HSJ633 (from 1 × 10^−12 to 1 × 10^−4 M) allowed to sit for 15 min, treated with 3.86 nM of IL-6, and incubated for 6 h. Cell lysis and mRNA extraction were performed by adding RiboZol. Samples were stored at −20 °C until RNA extraction and quantification (see section below).
For RT-qPCR experiments, cells were plated in 6-well plates at 70% of confluence and starved overnight. Cells were treated respectively with HSJ633, HSJ630, HSJ631, HSJ634, HSJ635, HSJ639 (1 × 10^−6 M), or TCZ (3.44 μM, based on validated doses (Sahraoui et al, [2014])) for TNF-α expression. For hIL-1, hIL-6, and hTNF-α expression, cells were treated with HSJ633 using concentrations ranging from 10^−11 to 10^−4 M, allowing for equilibrium over 15 min. Cells were then treated with […] of IL-6 for 6 h for both experiments. Cell lysis was performed by adding RIBOzol. Samples were stored at −20 °C until analysis by quantitative PCR. To determine the degree of phosphorylation of different proteins (STAT3, ERK, AKT, and p38), HEK-Blue IL-6 cells were treated with HSJ633 (10^−6 M), TCZ (3.44 uM) or vehicle for 30 min in DMEM only. Human IL-6 (3.86 nM) was added to the medium for 15 min to stimulate IL-6R pathways leading to STAT3, ERK, and AKT activation. For p38 activation, 25 min of stimulation with IL-6 was required. The wells were charged with radioimmunoprecipitation assay buffer (RIPA) at a concentration of 1×, cOmplete EDTA-free Protease Inhibitor Cocktail final concentration 1×, and phenylmethanesulfonyl fluoride (PMSF) 1 mM. Samples were shaken for 30 min followed by centrifugation at 12,000 RPM at 4 °C for 20 min to harvest the proteins. Proteins were stored at −80 °C until analysis by immunoblotting.
Samples (30 mg) of uterus, placenta, fetal membranes, as well as the fetal lung, brain, and intestine, were thawed and deposited in lysis buffer according to the manufacturer’s protocol (Qiagen RNeasy Plus Mini Kit). Cell lysis and RNA extraction were performed directly into RiboZol. RNA was extracted from tissue fragments and cells according to the manufacturer’s protocol. RNA was quantified with a NanoDrop 1000 spectrophotometer and samples (500 ng) were treated with DNAse I (1U). RNA was used to synthesize cDNA using iScript reverse transcription superMix. Quantitative gene expression analysis was performed on a Light Cycler 96 with iTaq Universal SYBR Green Supermix. […]
Target sequence in this assay (P08887 20-468): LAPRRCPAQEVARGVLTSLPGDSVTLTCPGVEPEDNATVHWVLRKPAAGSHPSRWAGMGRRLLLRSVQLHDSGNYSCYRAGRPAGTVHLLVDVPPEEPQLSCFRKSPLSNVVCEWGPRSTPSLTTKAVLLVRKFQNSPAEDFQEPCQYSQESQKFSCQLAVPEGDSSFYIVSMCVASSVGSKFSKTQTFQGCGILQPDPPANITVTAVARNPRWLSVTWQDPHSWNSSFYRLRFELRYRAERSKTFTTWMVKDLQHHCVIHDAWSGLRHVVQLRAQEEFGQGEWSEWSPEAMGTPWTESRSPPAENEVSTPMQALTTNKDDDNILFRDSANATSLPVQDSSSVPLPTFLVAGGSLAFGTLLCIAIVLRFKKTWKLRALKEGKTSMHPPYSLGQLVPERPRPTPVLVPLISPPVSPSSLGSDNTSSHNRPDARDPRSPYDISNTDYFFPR
Target sequence in this assay (P40189 23-918 partner): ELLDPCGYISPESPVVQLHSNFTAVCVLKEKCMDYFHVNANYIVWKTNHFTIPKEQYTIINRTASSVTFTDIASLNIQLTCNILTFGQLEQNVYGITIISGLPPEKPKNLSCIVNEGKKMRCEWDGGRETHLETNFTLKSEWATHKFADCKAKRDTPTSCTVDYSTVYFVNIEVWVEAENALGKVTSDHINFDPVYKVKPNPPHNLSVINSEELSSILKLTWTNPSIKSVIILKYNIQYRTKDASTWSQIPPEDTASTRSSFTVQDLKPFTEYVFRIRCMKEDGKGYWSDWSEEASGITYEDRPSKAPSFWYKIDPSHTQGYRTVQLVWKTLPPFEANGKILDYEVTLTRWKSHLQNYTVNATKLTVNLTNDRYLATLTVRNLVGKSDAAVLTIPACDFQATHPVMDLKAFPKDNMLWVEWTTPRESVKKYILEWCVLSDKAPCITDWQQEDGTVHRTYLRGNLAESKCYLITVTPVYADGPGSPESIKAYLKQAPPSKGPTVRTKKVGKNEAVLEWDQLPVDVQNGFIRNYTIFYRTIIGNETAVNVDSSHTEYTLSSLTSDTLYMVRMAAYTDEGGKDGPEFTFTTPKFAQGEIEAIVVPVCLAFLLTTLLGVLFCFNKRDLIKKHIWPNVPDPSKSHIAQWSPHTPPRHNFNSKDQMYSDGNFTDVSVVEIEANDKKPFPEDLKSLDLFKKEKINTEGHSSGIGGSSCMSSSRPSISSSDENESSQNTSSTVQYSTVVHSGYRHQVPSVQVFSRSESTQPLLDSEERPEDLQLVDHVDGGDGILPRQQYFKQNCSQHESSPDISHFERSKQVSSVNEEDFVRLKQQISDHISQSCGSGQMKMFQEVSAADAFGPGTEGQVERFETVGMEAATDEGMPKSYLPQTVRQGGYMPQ
Target sequence in this assay (P05231 30-212 partner): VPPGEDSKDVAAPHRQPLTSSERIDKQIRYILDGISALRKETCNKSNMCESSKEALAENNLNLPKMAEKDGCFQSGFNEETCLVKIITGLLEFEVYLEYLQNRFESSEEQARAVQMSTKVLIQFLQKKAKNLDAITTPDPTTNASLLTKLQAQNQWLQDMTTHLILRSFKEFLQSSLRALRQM

In a further data set the test system is lung parenchyma. Conditions: mouse, in vivo. As for the experimental part:
To determine the maximal delay of administration of HSJ633, LPS was injected as previously described, and HSJ633 was either administered 2 h or 6 h after the LPS injection at GD16. Dams were consistently observed for delivery until term (G18.5–19.5), and the body weight and survival rate (if 2 or more pups are alive, the litter is considered alive) of the neonates were recorded. The prematurity rate was assessed by determining the number of dams delivering prematurely (gestation length before 18.5 days) out of the total number of dams in the same group. The pups were sacrificed at PT7 for histological analysis.
Histology was performed as described by Habelrih et al (Habelrih et al, [2023]). Images were captured using ×10 objective with a Zeiss AxioScan.Z1.

The target of data set [2] is T1, IL-6R (HEK-Blue IL-6 cells). The data set is described as follows: [125I]-HSJ633 binding and displacement on HEK-Blue IL-6 cells. The following applies: 3–4 samples per group. As for the experimental part:
(§1) The Bolton–Hunter reaction was utilized to conjugate the N-hydroxysuccinimide ester of 3-(4-hydroxyphenyl) propionic acid, a tyrosine-like residue, to primary amines as per the manufacturer’s instructions. Briefly, the peptide was dissolved in modification buffer (pH 9.0), then 100 μL of Bolton–Hunter Reagent was added and incubated for 3 h with periodic mixing. After incubating, the solution was dialyzed in PBS using a PlusOne Mini Dialysis Kit. Then 25 μL of peptide, 80 μL of PBS, and 25 μL of I^125 were combined in a precoated tube for 15 min. The reaction was stopped, and C-18 spin columns were used to perform washes and collect the iodine-marked peptide. Radioactivity measurements were made for each batch of radioactive peptides using a Gamma counter (Packard Cobra-II Auto Gamma Counter).
(§2) The HEK-blue IL-6 cells were allowed to acclimatize for two passages to complete the stabilization of the receptor. Prior to experiments, media was changed to adjust for a maximum quantity of 500 μL per well. Subsequently, unlabeled HSJ633 (10^−4 M) was added and allowed to reach equilibrium for 15 min. HEK293 and HEK-Blue IL-6 cells were then treated with the labeled HSJ633 in a quantity equating to 50,000 CPM per well. […] All samples were measured using a Gamma counter (Packard Cobra-II Auto Gamma Counter).

The subject of data set [3] is LPS-induced preterm birth in CD-1 mice. The data set is described as follows: STAT3 inhibitor efficacy in LPS-induced PTB: gestational length and prematurity rate. Conditions: for prevention of LPS-induced PTB: 5 mg/kg/day s.c., twice a day, GD16; for % PTB: group value; for GD (gestation day): individual dams, one per line. Type of data set: in vivo, mouse. As for the experimental part: Timed pregnant CD-1 mice at days 16 and 17 of gestation were anesthetized with isoflurane and given intraperitoneal (i.p.) injections of LPS (4 μg in 100 μL saline on GD16 and 6 μg in 100 μL saline on GD17, total 10 μg) or vehicle (100 μL). Doses of LPS were selected based on previous reports (Chang et al, [2011]; Elovitz and Mrinalini, [2004]; Fidel et al, [1994]; Sadowsky et al, [2006]; Salminen et al, [2008]; Urakubo et al, [2001]), preliminary dose–response experiments, and knowing that a systemic maternal infection is associated with the onset of labor (Romero et al, [2001]). A total of 100 μL of HSJ633 or HSJ639 (2 mg/kg/day), an anti-IL-6R antibody (800 μg/kg/day) or vehicle was injected subcutaneously (s.c.) 30 min before injections of LPS (to allow distribution of drugs to target tissues) and repeated twice daily until GD18.5.
Thirty minutes before administering LPS, on GD16, NSC74859 (5 mg/kg/day solubilized in 20% DMSO + water, injected twice a day s.c.) or rmgp130/Fc Chimera (10 μg i.p. on GD16 and 10 μg s.c. on GD16.5) were injected into distinct dams. The same LPS-induction PTB model as described above was used for these experiments (4 μg on GD16 + 6 μg on GD17, i.p.). Delivery was assessed until term (GD18.5–19.5).

Data set [4] addresses T1, IL-6R (HEK-Blue IL-6 cells). The data set is described as follows: TNF-α expression in HEK-Blue IL-6 cells (RT-qPCR), peptide screening. The data set is classed as cell-based. The following applies: IL-6 3.86 nM 6 h, peptides 1 μM, TCZ 3.44 μM, RT-qPCR normalized to 18S, 2-9 samples per group. On the procedure: HEK293 and HEK-blue IL-6 cells were purchased and were used at fewer than 15 passages and tested mycoplasma negative. Cells were cultured in DMEM growth medium supplemented with 10% fetal bovine serum (FBS), 50 U/mL penicillin, and 50 μg/mL streptomycin. HEK-blue IL-6 cell media was also supplemented with HEK-Blue Selection (1:250). Ba/F3-polylinker, Ba/F3-mgp130, and Ba/F3-mgp130-IL-6Rα cells were cultured in RPMI 1640 growth medium supplemented with 10% FBS, 50 U/mL penicillin, and 50 μg/mL streptomycin. These cells were maintained in murine IL-3 at 10 ng/mL and puromycin at 1 μg/mL. Cells were cultured in standard experimental conditions (37 °C, 5% CO2).
For RT-qPCR experiments, cells were plated in 6-well plates at 70% of confluence and starved overnight. […] Samples were stored at −20 °C until analysis by quantitative PCR. […]
Samples (30 mg) of uterus, placenta, fetal membranes, as well as the fetal lung, brain, and intestine, were thawed and deposited in lysis buffer according to the manufacturer’s protocol (Qiagen RNeasy Plus Mini Kit). […] RNA was quantified with a NanoDrop 1000 spectrophotometer and samples (500 ng) were treated with DNAse I (1U). […] Quantitative gene expression analysis was performed on a Light Cycler 96 with iTaq Universal SYBR Green Supermix. […]
Target sequence in this assay (P08887 20-468): as the sequence (P08887 20-468) above
Target sequence in this assay (P40189 23-918 partner): as the sequence (P40189 23-918 partner) above
Target sequence in this assay (P05231 30-212 partner): as the sequence (P05231 30-212 partner) above

A further data set has as its system HEK293 cells. The experiment in a line: [125I]-HSJ633 binding on HEK293 cells devoid of IL-6R. More on the design: species or system human. Conditions: [125I]-HSJ633 10^−8 M, 1.5 h; four samples per group. As for the experimental part: as §1, §2

Description for placenta: Mice were euthanized after 4 h to analyze tissue distribution of the fluorescent-tagged compounds. Placentas were collected and fixed in 4% paraformaldehyde for 1 day and transferred into 30% sucrose for another day. Placental cryosections were stained with DAPI (0.0002 mg/mL) for nuclei. Images were captured using a ×20 objective with a Zeiss AxioScan.Z1. Fluorescence analysis was performed using ImageJ.

`O=C1OC2(c3ccc(O)cc3Oc3cc(O)ccc32)c2ccc(N=C=S)cc21` [FITC]: the “placental fluorescence, LPS-treated” value in the data set with placenta is “increase in signal intensity in the placenta”.

Take `CC(C)[C@@H](N)C(=O)N[C@H](CCCNC(=N)N)C(=O)N[C@H](CCCCN)C(=O)N[C@H](Cc1ccccc1)C(=O)N[C@H](CCC(N)=O)C(=O)N[C@H](CC(N)=O)C(=O)N[C@H](CO)C(=O)N1CCC[C@@H]1C(=O)N[C@H](C)C(=O)O` [HSJ633] (HELM PEPTIDE1{[dV].[dR].[dK].[dF].[dQ].[dN].[dS].[dP].[dA]}$$$$V2.0): the IC50 is 0.8 nM in data set [1] (HEK-Blue IL-6, HSJ633 10^−11–10^−4 M, IL-6 3.86 nM 6 h, RT-qPCR normalized to 18S, 3–8 samples per group, read-out: IC50 hIL-1β mRNA); 2 nM in data set [1] (HEK-Blue IL-6, HSJ633 10^−11–10^−4 M, IL-6 3.86 nM 6 h, RT-qPCR normalized to 18S, 3–8 samples per group, read-out: IC50 hIL-6 mRNA); 0.2 nM in data set [1] (HEK-Blue IL-6, HSJ633 10^−11–10^−4 M, IL-6 3.86 nM 6 h, RT-qPCR normalized to 18S, 3–8 samples per group, read-out: IC50 hTNF-a mRNA); around 1 nM in data set [1] (HEK-Blue IL-6, IL-6 3.86 nM, 6 h, RT-qPCR, average over three cytokines, read-out: average IC50, inhibition of IL-6-induced expression of IL-1β, TNF-α, and IL-6 mRNA); 12 nM in data set [2] (1.5 h room temperature, gamma counter, read-out: IC50, displacement of bound [125I]-HSJ633 by cold HSJ633 (% of specific binding)). Also, the “alveolar density in lung, referee's reading of figure” value in the data set on lung parenchyma is reported as “causes loss of alveolar density in the lung”.

As to `Cc1ccc(S(=O)(=O)OCC(=O)Nc2ccc(C(=O)O)c(O)c2)cc1` [NSC74859], the figures for the “prevention of LPS-induced PTB” value in data set [3] and in data set [3] (listed as NCS74859) were “successfully inhibited preterm birth” and “effective in preventing LPS-induced PTB”, respectively. Also, the “% PTB” value was determined as 25.00% in data set [3] (experiment of April 2022, less than 18 days = PTB); 20.00% in data set [3] (experiment of May 2022); 42.86% in data set [3] (third, undated experiment). Besides, the “GD (gestation day)” value in data set [3] (experiment of April 2022, 18.5 days and more = term) is 18 and 18.5 and 19; in data set [3] (experiment of May 2022), 19.5 and 18.5 and 17.5; in data set [3] (third, undated experiment) it was 17 and 17.5 and 19 and 19.5.

Consider “IL-6: human IL-6, Peprotech 200-06, endogenous IL-6R ligand”, for which, in data set [2] ([125I]-HSJ633 10^−8 M, IL-6 10^−4 M), the “displacement of [125I]-HSJ633 by IL-6” value is listed as “not by non-radioactive IL-6; also recorded: IL-6 does not displace binding of HSJ633”. The TNF-α expression entry in data set [4] is listed as “induced TNF-α expression”.

In the case of “[^125I]-HSJ633: HSJ633 iodine-labeled after Bolton–Hunter reaction ([dV][dR][dK][dF][dQ][dN][dS][dP][dA]; also: Bolton–Hunter reagent (3-(4-hydroxyphenyl)propionic acid) conjugated to primary amines, iodinated with 125I)”, in the data set on HEK293 cells, the “[125I]-HSJ633 binding on HEK293 cells devoid of IL-6R” value is listed as “No binding”.

The values are drawn from article PMC12340070, “A novel modulator of IL-6R prevents inflammation-induced preterm birth and improves newborn outcome” (EMBO Molecular Medicine, 2025).
